Here are results for one compound from patent publication US11427604B2 (Mindset Pharma Inc., priority 2020, dated 2022).

The structures appear in SMILES notation. Read-outs that look alike come from different tables or passages of the source.

Data set [1] is described as follows: In vivo pharmacokinetics in male C57BL/6 mice. Also on record: species or system mouse. The note with it: for AUC(0-t): read-out: AUC0-tlast; for half-life: read-out: Apparent t1/2 (converted); for MRT inf: read-out: MRT0-inf. Here is the method: Male C57BL/6 mice (25-30 g) and male Sprague-Dawley rats (250-325 g) from Charles River Labs were acclimatized for a minimum of 5 days prior to dosing. Body weights were recorded on the day of dosing.
Animals dosed p.o. were deprived of food overnight and fed ˜2 h following dosing.
Formulations were administered intravenously (i.v.) via the tail vein or orally (p.o.) by gavage with disposable feeding needles.
Serial blood samples were collected via tail snip. Terminal blood samples were collected under isoflurane anesthesia by cardiac puncture.
All blood samples were transferred into K2EDTA tubes on wet ice and centrifuged within 5 min (3200×g for 5 min at 4° C.) to obtain plasma. Plasma was stored at −80° C. until analysis.
Mouse or rat plasma, as applicable.
AB Sciex QTRAP 4000 or 6500 MS/MS system equipped with an LC system with a binary pump, a solvent degasser, a thermostated column compartment and a multiplate autosampler. i. Analysis software: Phoenix® WinNonlin® 8.2 (Pharsight, Certara, Mountainview, Calif.) ii. Analysis methods: non-compartmental analysis, linear up/log down trapezoidal rule iii. PK parameters: C0, t1/2, AUC0-tlast, AUC0-∞, CL, VSS, MRT, tmax(po), Cmax(po), F, as appropriate

The nature of data set [2]: Mouse liver microsomes stability with NADPH. The procedure:
(§1) The objective of this study was to estimate in vitro metabolic stability of 1-45 in pooled human and male mouse liver microsomes. The concentrations of exemplary compounds in reaction systems were evaluated by LC-MS/MS for estimating the stability in pooled human and male mouse liver microsomes. The in vitro intrinsic clearances of test compounds were determined as well.
(§2) A master solution in the “Incubation Plate” containing phosphate buffer, ultra-pure H2O, MgCl2 solution and liver microsomes was made according to Table --. The mixture was pre-warmed at 37° C. water bath for 5 minutes.
(§3) 40 μL of 10 mM NADPH solution was added to each well. The final concentration of NADPH was 1 mM. The negative control samples were prepared by replacing NADPH with 40 μL of ultra-pure H2O. Samples were prepared in duplicate. Negative controls were prepared in singlet.
(§4) The reaction was started with the addition of 4 μL of 200 μM test compounds or control compounds to each master solution to get the final concentration of 2 μM. This study was performed in duplicate.
(§5) Aliquots of 50 μL were taken from the reaction solution at 0, 15, 30, 45 and 60 minutes. The reaction solutions were stopped by the addition of 4 volumes of cold methanol with IS (100 nM alprazolam, 200 nM imipramine, 200 nM labetalol and 2 μM ketoprofen). Samples were centrifuged at 3,220 g for 40 minutes. Aliquot of 90 μL of the supernatant was mixed with 90 μL of ultra-pure H2O and then was used for LC-MS/MS analysis.
(§6) LC/MS analysis was performed for all samples from this study using a Shimadzu liquid chromatograph separation system equipped with degasser DGU-20A5R; solvent delivery unit LC-30AD; system controller SIL-30AC; column oven CTO-30A; CTC Analytics HTC PAL System. Mass spectrometric analysis was performed using an Triple Quad™ 5500 instrument.
(§7) All calculations were carried out using Microsoft Excel. Peak area ratios of test compound to internal standard (listed in the below table) were determined from extracted ion chromatograms.
(§8) All calculations were carried out using Microsoft Excel. Peak areas were determined from extracted ion chromatograms. The slope value, k, was determined by linear regression of the natural logarithm of the remaining percentage of the parent drug vs. incubation time curve.
(§9) Conversion of the in vitro t1/2 (min) into the in vitro intrinsic clearance (in vitro CLint, in μL/min/mg proteins) was done using the following equation (mean of duplicate determinations):
(§10) [formula] […] Results & Discussion
On the technique in general: Microsomes from liver hold many membrane-bound enzymes, among them those of drug oxidation.

Data set [3] in a line: Human liver microsomes stability with NADPH. Here is the method:
as §1, §2, §3, §4, §5, §6, §7, §8, §9, §10

[4] abbreviates: mouse, plasma, iv, i.v. 1 mg/kg.
Where [5] appears, read: mouse, plasma, po, p.o. 10 mg/kg.

The term AUC(0-inf) denotes total exposure, with the tail of the curve extrapolated. A low value points to less exposure. The term clearance denotes the rate of elimination divided by the concentration. As a reminder, the Cmax is the peak of the concentration-time curve. As a reminder, the bioavailability is dose-corrected exposure relative to a reference, in per cent. The low end stands for poor availability, the high end for good availability. A word on the microsomal CLint: it is the rate of metabolic loss divided by the concentration. In data set [1] (i.v. 1 mg/kg), `[2H]C([2H])([2H])N(C([2H])([2H])[2H])C([2H])([2H])C([2H])([2H])c1c[nH]c2cccc(O)c12` [Compound I-45, 3-(2-(bis(methyl-d3)amino)ethyl-1,1,2,2-d4)-1H-indol-4-ol] came in with an AUC0-inf/Dose of 181 ± 30.8 kg·ng·h/mL/mg. Also, in data set [1] (setting [4]), the AUC(0-inf) amounted to 181 ± 30.8 ng·h/mL, the clearance was 94 mL/min/kg, the AUC(0-t) amounted to 178 ± 32.2 ng·h/mL and the half-life was 5.32 ± 2.99 h. In addition, the MRT inf in data set [1] (setting [4]) turned out to be 1.49 ± 0.536 h. For the same compound, the Vd in data set [1] (mouse, plasma, iv, i.v. 1 mg/kg, read-out: Vss) was 8.34 ± 3.15 L/kg. In addition, in data set [1] (setting [5]), the AUC(0-inf) came to 795 ± 121 ng·h/mL, the concentration peaked (Cmax) at 704 ± 128 ng/mL, the bioavailability worked out at 44 ± 6.7% and the AUC(0-t) was determined as 792 ± 120 ng·h/mL. Further, in data set [1] (setting [5]), the half-life was 4.52 ± 0.481 h and the MRT inf worked out at 2 ± 0.227 h. In addition, in data set [1] (p.o. 10 mg/kg), the AUC0-inf/Dose is 79.5 ± 12.1 kg·ng·h/mL/mg and the Cmax/Dose came to 70.4 ± 12.8 kg·ng/mL/mg. Also, in data set [2] (Mouse, with NADPH, 2 μM), the “Remaining Percentage (%) after 60 min” value is 64.91%. For the same compound, in data set [2] (male, mouse, microsomes), the half-life at 2 μM was found to be 1.6 h and the microsomal CLint at 2 μM turned out to be 14.4 µL/min/mg. Besides, the “Remaining Percentage (%) after 60 min” value in data set [3] (Human, with NADPH, 2 μM) was 73.65%. In data set [3] (human, microsomes), the half-life at 2 μM is 2.27 h and the microsomal CLint at 2 μM was 10.2 µL/min/mg.
